# Experimental data from patent publication US10941158B2, “Pyrazole ACC inhibitors and uses thereof” (Gilead Apollo, LLC, priority 2015, dated 2021).
# Where two headings read alike, the source gives them in different places.
# Experiments:
# fungal (fACC2) ACC2 = fungal (fACC2) ACC2 (UniProt Q00955); details: read-out: fACC2 IC50; fungal ACC2, ADP-Glo
# human (hACC2) ACC2 = human (hACC2) ACC2 (Homo sapiens, UniProt O00763); test: In vitro Acetyl-CoA Carboxylase (ACC) inhibition assay (ADP-Glo), hACC2; assay type: biochemical
# Procedure: The detailed procedure is as follows. […] 10 μL ADP glo reagent was added. […] 20 μL kinase detection reagent was added.
# “NA” stands for “not assayed.”
# [1] = tested on: C. parapsilosis ATCC 22019; test: Anti-Fungal (Candida) Activity Assay, broth microtiter MIC; assay type: cell-based; details: Lodderomyces parapsilosis, ATCC22019; 3 replicates, MIC recorded at 48 h; read-out: MIC C. parapsilosis ATCC 22019
# In short: (§1)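 In CLSI M27-A3 microtiter plates, yeast from overnight agar culture is inoculated in RPMI 1640–MOPS at a standard-curve density. The MIC is the endpoint scored visually against growth control at 48 h.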
# C. krusei ATCC 6258 = test: as above; assay type: cell-based; details: Pichia kudriavzevii, ATCC6258; 3 replicates, MIC recorded at 48 h; read-out: MIC C. krusei ATCC 6258
# In short: as §1
# C. albicans ATCC 90028 = test: as above; assay type: cell-based; details: ATCC90028, 3 replicates, MIC recorded at 48 h, read-out: MIC C. albicans ATCC 90028
# In short: as §1
# [2] = tested on: Fusarium virguliforme (Fv); test: Growth inhibition assay of fungal pathogens; assay type: cell-based; details: 48 h
# In short: (§2)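 Liquid-culture assay in which test compounds are applied at three final concentrations (50, 10, 2 ppm or 2, 0.4, 0.08 ppm). Inoculum levels follow 48 h growth curves for each fungus. Growth is monitored by OD600 and by eye, and the 48 h values give % inhibition against DMSO.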
# Botrtyis cinerea (Bc) = test: Growth inhibition assay of fungal pathogens; assay type: cell-based; details: 48 h, Table 4b, read-out: Concentration at 90% Inhibition Bc
# In short: (§3)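 OD600 (blank-subtracted) plus visual scoring at 48 h, vs 2% DMSO ctrl → % inhibition. Final cpd 50/10/2 or 2/0.4/0.08 ppm. Fm/Bc/Dm spores in 17% V8 broth; Rs as 1.5 mm plugs in ¼ PDB.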
# [3] = tested on: Collectotrichum graminicola (Cg); test: Growth inhibition assay of fungal pathogens; assay type: cell-based; details: 48 h, Table 4b, read-out: Concentration at 90% Inhibition Cg
# In short: as §2
# [4] = tested on: Phytophthora capsici (Pc); test: Growth inhibition assay of fungal pathogens; assay type: cell-based; details: Phytophthora capsici, Table 4b, read-out: Concentration at 90% Inhibition Pc
# In short: as §2
# Septoria tritici (St) = test: Growth inhibition assay of fungal pathogens; assay type: cell-based; details: Zymoseptoria tritici, Table 4b, read-out: Concentration at 90% Inhibition St
# In short: as §2
# Diplodia maydis (Dm) = test: Growth inhibition assay of fungal pathogens; assay type: cell-based; details: Stenocarpella maydis, 48 h, Table 4b, read-out: Concentration at 90% Inhibition Dm
# In short: as §3
# Rhizoctonia solani (Rs) = test: Growth inhibition assay of fungal pathogens; assay type: cell-based; details: 48 h, Table 4b, read-out: Concentration at 90% Inhibition Rs
# In short: as §3
# [5] = tested on: Fusarium moniliforme (Fm); test: Growth inhibition assay of fungal pathogens; assay type: cell-based; details: Fusarium verticillioides, 48 h, read-out: Concentration at 90% Inhibition Fm
# In short: as §3
# [6] = Table 4b, 48 hours, read-out: Concentration at 90% Inhibition Fv
# fungal (fACC2) ACC2, sequence (Q00955 whole entry): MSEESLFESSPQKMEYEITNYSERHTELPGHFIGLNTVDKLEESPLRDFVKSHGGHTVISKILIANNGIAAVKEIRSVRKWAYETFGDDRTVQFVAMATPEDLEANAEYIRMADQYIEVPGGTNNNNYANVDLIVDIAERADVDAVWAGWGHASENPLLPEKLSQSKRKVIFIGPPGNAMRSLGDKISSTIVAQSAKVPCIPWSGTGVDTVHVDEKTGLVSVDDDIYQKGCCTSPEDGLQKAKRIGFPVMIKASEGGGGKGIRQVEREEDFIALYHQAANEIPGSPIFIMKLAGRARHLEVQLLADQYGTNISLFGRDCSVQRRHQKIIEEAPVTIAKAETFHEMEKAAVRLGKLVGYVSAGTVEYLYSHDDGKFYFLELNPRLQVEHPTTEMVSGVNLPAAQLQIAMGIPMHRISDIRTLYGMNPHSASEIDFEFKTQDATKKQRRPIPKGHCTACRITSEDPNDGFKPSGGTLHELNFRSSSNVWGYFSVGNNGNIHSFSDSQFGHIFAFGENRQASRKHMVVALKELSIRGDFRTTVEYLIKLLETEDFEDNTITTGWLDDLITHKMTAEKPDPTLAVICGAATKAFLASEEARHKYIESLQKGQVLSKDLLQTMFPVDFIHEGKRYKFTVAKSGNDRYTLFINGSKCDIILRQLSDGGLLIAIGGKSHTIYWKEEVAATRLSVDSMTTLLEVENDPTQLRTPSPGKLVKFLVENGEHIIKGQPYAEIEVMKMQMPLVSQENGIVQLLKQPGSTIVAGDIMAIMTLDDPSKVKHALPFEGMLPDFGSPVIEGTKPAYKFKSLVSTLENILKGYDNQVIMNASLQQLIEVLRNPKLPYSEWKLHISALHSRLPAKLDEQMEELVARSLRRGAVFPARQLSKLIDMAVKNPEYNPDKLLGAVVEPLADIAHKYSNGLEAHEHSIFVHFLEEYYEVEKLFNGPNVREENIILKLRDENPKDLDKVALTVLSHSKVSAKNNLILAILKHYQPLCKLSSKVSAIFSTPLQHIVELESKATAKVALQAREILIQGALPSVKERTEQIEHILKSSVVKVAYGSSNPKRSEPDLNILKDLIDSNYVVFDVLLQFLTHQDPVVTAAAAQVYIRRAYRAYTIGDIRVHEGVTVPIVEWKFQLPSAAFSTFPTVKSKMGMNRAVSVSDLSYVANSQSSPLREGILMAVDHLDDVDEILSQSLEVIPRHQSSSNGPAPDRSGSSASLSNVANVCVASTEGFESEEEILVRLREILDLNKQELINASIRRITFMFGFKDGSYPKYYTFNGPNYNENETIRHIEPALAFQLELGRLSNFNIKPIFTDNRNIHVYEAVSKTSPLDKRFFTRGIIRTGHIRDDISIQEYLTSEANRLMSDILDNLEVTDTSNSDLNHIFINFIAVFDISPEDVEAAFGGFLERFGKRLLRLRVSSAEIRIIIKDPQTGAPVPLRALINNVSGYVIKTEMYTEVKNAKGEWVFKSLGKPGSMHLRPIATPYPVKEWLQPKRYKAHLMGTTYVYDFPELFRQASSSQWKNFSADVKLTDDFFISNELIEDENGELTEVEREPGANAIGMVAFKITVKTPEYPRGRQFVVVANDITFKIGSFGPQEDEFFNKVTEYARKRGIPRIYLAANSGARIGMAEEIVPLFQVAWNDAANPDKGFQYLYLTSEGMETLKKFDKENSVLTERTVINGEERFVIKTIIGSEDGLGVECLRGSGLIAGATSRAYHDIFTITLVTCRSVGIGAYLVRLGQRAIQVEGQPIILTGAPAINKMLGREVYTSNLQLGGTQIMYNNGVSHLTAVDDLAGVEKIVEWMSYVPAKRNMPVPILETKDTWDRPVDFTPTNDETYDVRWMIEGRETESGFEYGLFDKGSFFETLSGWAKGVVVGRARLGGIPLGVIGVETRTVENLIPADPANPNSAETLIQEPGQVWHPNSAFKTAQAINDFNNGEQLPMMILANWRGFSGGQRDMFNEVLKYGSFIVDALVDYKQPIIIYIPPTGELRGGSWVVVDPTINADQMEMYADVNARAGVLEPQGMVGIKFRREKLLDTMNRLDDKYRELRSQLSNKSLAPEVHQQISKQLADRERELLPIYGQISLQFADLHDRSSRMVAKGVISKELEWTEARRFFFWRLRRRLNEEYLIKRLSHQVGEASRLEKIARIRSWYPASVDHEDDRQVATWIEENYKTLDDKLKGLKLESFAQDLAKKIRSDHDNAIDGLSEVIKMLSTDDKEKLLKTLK
# human (hACC2) ACC2, sequence (O00763 whole entry): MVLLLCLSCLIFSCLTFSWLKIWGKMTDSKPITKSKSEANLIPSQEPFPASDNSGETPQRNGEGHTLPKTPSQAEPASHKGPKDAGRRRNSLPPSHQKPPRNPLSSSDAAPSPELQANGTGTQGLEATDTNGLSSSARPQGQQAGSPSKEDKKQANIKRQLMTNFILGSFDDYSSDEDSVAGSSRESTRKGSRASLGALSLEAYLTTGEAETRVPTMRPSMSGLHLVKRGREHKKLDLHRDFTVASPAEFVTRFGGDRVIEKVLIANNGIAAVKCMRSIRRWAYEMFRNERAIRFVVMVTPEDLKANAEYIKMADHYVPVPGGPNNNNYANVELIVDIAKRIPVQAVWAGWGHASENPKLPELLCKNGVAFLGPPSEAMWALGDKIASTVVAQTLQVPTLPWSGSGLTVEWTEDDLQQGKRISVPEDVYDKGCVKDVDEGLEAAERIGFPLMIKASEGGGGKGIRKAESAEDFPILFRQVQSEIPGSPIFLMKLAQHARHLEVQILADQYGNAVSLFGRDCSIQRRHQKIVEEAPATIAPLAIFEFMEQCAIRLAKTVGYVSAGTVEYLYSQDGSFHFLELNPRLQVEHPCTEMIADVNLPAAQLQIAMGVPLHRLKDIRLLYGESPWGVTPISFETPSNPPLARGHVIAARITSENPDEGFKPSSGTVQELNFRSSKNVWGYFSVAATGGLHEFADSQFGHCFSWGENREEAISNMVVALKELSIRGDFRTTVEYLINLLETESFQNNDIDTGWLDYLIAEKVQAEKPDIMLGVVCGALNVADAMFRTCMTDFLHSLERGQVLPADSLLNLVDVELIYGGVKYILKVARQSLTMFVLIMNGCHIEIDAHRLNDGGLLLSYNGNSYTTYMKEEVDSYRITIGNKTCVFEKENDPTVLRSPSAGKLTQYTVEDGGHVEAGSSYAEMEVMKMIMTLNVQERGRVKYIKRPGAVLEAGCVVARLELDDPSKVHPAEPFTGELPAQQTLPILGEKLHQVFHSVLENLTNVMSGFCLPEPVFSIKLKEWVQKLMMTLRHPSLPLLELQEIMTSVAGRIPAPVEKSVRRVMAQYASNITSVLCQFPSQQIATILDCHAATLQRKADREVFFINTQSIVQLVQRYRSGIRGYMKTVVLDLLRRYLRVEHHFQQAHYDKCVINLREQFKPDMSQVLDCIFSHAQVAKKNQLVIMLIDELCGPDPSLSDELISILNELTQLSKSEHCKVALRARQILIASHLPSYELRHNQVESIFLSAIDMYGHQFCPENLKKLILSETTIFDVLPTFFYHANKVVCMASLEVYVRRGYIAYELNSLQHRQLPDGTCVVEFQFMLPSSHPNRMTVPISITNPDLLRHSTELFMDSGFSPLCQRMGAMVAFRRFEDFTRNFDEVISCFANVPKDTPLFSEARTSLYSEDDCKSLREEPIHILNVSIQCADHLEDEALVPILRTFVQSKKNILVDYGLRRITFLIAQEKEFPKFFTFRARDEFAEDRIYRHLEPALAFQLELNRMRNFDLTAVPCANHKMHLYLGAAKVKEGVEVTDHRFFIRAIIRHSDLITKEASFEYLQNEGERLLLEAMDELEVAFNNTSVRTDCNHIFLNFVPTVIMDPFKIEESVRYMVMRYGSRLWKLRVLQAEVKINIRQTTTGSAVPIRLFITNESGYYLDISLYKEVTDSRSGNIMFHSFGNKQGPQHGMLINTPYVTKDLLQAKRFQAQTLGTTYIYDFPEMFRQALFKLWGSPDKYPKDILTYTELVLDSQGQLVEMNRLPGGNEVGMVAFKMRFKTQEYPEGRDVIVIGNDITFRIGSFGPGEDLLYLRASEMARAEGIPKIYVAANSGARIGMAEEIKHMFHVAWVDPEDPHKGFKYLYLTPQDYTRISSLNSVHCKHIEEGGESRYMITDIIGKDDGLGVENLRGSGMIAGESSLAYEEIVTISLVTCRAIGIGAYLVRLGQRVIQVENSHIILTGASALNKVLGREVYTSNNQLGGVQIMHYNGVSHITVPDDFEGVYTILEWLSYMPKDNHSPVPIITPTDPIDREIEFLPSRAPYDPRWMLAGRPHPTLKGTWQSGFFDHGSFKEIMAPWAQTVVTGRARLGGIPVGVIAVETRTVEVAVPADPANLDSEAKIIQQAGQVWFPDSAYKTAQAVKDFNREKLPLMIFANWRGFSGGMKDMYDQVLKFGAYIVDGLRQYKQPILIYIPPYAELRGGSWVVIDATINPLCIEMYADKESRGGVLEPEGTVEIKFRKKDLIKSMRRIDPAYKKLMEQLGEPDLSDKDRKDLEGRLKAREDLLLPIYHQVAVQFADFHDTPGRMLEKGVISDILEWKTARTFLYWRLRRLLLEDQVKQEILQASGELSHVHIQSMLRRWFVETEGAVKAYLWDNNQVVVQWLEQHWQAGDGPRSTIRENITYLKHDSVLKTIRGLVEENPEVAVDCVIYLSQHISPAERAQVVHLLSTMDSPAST
SMILES,IC50 (fungal (fACC2) ACC2),IC50 (human (hACC2) ACC2),MIC [1],MIC (C. krusei ATCC 6258),MIC (C. albicans ATCC 90028),other results
"COCCO[C@@H](Cn1c(=O)n(C(C)C(=O)N2CCCC2)c(=O)c2c(C)c(-n3cccn3)sc21)c1cc(F)ccc1OC (mixture of isomers) [Compound I-54, 1-((R)-2-(5-fluoro-2-methoxyphenyl)-2-(2-methoxyethoxy)ethyl)-5-methyl-3-(1-oxo-1-(pyrrolidin-1-yl)propan-2-yl)-6-(1H-pyrazol-1-yl)thieno[2,3-d]pyrimidine-2,4(1H,3H)-dione]",0.6 to 3 nM,10 to 40 nM,> 4.1 µg/mL,> 4.1 µg/mL,> 4.1 µg/mL,–
Cc1c(-n2cccn2)sc2c1c(=O)n(C(C)(C)C(=O)NC(C)C)c(=O)n2C[C@H](OC1CCOCC1)c1cc(F)ccc1OCCO [Compound I-48],0.6 to 3 nM,3 to 10 nM,> 4.1 µg/mL,> 4.1 µg/mL,> 4.1 µg/mL,–
COCCOc1ccc(F)cc1[C@H](Cn1c(=O)n(C(C)(C)C(=O)NC(C)C)c(=O)c2c(C)c(-n3cccn3)sc21)OC1CCOCC1 [Compound I-49],0.6 to 3 nM,3 to 10 nM,> 4.1 µg/mL,1.1 to 2 µg/mL,> 4.1 µg/mL,–
Cc1c(-n2cccn2)sc2c1c(=O)n(C(C)(C)C(=O)NC(C)C)c(=O)n2C[C@H](OC1CCOCC1)c1cc(F)ccc1OCC1COC1 [Compound I-50],0.6 to 3 nM,3 to 10 nM,> 4.1 µg/mL,> 4.1 µg/mL,> 4.1 µg/mL,–
Cc1c(-n2cccn2)sc2c1c(=O)n(C(C)(C)C(=O)N1CCCC1)c(=O)n2C[C@H](OC1CCOCC1)c1cc(F)ccc1OCCO [Compound I-51],0.6 to 3 nM,3 to 10 nM,2.1 to 4 µg/mL,0.25 to 1 µg/mL,1.1 to 2 µg/mL,–
COCCOc1ccc(F)cc1[C@H](Cn1c(=O)n(C(C)(C)C(=O)N2CCCC2)c(=O)c2c(C)c(-n3cccn3)sc21)OC1CCOCC1 [Compound I-52],0.6 to 3 nM,3 to 10 nM,1.1 to 2 µg/mL,1.1 to 2 µg/mL,2.1 to 4 µg/mL,–
Cc1c(-n2cccn2)sc2c1c(=O)n(C(C)(C)C(=O)N1CCCC1)c(=O)n2C[C@H](OC1CCOCC1)c1cc(F)ccc1OCC1COC1 [Compound I-53],0.6 to 3 nM,3 to 10 nM,2.1 to 4 µg/mL,1.1 to 2 µg/mL,> 4.1 µg/mL,–
COCCO[C@@H](Cn1c(=O)n(C(C)C(=O)NC(C)C)c(=O)c2c(C)c(-n3cccn3)sc21)c1cc(F)ccc1OC (stereo partly shown) [Compound I-55],0.6 to 3 nM,3 to 10 nM,2.1 to 4 µg/mL,2.1 to 4 µg/mL,2.1 to 4 µg/mL,–
COCCO[C@@H](Cn1c(=O)n(C(C)C(N)=O)c(=O)c2c(C)c(-n3cccn3)sc21)c1cc(F)ccc1OC (stereo partly shown) [Compound I-56],10 to 40 nM,> 40 nM,> 4.1 µg/mL,> 4.1 µg/mL,> 4.1 µg/mL,–
COCCO[C@@H](Cn1c(=O)n(C(C)C(=O)O)c(=O)c2c(C)c(-n3cccn3)sc21)c1cc(F)ccc1OC (stereo partly shown) [Compound I-57],10 to 40 nM,10 to 40 nM,> 4.1 µg/mL,> 4.1 µg/mL,> 4.1 µg/mL,–
COc1ccc(F)cc1[C@H](Cn1c(=O)n(C(C)C(=O)N2CCCC2)c(=O)c2c(C)c(-n3cccn3)sc21)OCCO (stereo partly shown) [Compound I-58],0.6 to 3 nM,3 to 10 nM,> 4.1 µg/mL,2.1 to 4 µg/mL,> 4.1 µg/mL,–
COc1ccc(F)cc1[C@H](Cn1c(=O)n(C(C)C(=O)NC(C)C)c(=O)c2c(C)c(-n3cccn3)sc21)OCCO (stereo partly shown) [Compound I-59],0.6 to 3 nM,3 to 10 nM,> 4.1 µg/mL,> 4.1 µg/mL,> 4.1 µg/mL,–
COc1ccc(F)cc1[C@H](Cn1c(=O)n(C(C)C(=O)O)c(=O)c2c(C)c(-n3cccn3)sc21)OCCO (stereo partly shown) [Compound I-60],0.6 to 3 nM,3 to 10 nM,> 4.1 µg/mL,> 4.1 µg/mL,> 4.1 µg/mL,–
COc1ccc(F)cc1[C@H](Cn1c(=O)n(C(C)C(N)=O)c(=O)c2c(C)c(-n3cccn3)sc21)OCCO (stereo partly shown) [Compound I-61],0.6 to 3 nM,10 to 40 nM,> 4.1 µg/mL,> 4.1 µg/mL,> 4.1 µg/mL,–
COc1ccc(F)cc1[C@H](Cn1c(=O)n(C(C)C(=O)O)c(=O)c2c(C)c(-n3cccn3)sc21)OCC(C)(C)O (stereo partly shown) [Compound I-62],0.6 to 3 nM,3 to 10 nM,> 4.1 µg/mL,> 4.1 µg/mL,> 4.1 µg/mL,–
COCCOc1ccc(F)cc1[C@H](Cn1c(=O)n(C(C)(C)C(N)=O)c(=O)c2c(C)c(-n3cccn3)sc21)OC(C)C [Compound I-63],0.6 to 3 nM,3 to 10 nM,> 4.1 µg/mL,> 4.1 µg/mL,> 4.1 µg/mL,–
COCCOc1ccc(F)cc1[C@H](Cn1c(=O)n(C(C)(C)C(=O)O)c(=O)c2c(C)c(-n3cccn3)sc21)OC(C)C [Compound I-64],0.6 to 3 nM,3 to 10 nM,> 4.1 µg/mL,> 4.1 µg/mL,> 4.1 µg/mL,–
COc1ccc(F)cc1[C@H](Cn1c(=O)n(C(C)C(=O)O)c(=O)c2c(C)c(-n3cccn3)sc21)OCC(C)=O (stereo partly shown) [Compound I-65],3 to 10 nM,10 to 40 nM,> 4.1 µg/mL,> 4.1 µg/mL,> 4.1 µg/mL,–
COc1ccc(F)cc1[C@H](Cn1c(=O)n(C(C)C(=O)N2CCCC2)c(=O)c2c(C)c(-n3cccn3)sc21)OCC(C)(C)O (stereo partly shown) [Compound I-66],0.6 to 3 nM,10 to 40 nM,> 4.1 µg/mL,> 4.1 µg/mL,> 4.1 µg/mL,–
COc1ccc(F)cc1[C@H](Cn1c(=O)n(C(C)C(=O)NC(C)C)c(=O)c2c(C)c(-n3cccn3)sc21)OCC(C)(C)O (stereo partly shown) [Compound I-67],0.6 to 3 nM,10 to 40 nM,> 4.1 µg/mL,> 4.1 µg/mL,> 4.1 µg/mL,–
"COCCO[C@@H](Cn1c(=O)n([C@@H](C)C(=O)N2CCCC2)c(=O)c2c(C)c(-n3cccn3)sc21)c1cc(F)ccc1OC [Compound I-75, 1-((R)-2-(5-fluoro-2-methoxyphenyl)-2-(2-methoxyethoxy)ethyl)-5-methyl-3-((S)-1-oxo-1-(pyrrolidin-1-yl)propan-2-yl)-6-(1H-pyrazol-1-yl)thieno[2,3-d]pyrimidine-2,4(1H,3H)-dione]",0.6 to 3 nM,3 to 10 nM,–,–,–,"IC90 [2, 6]: 0.4 µg/mL; IC90 (Botrtyis cinerea (Bc)): 2 µg/mL; IC90 [3]: 2 µg/mL; IC90 ([4]; 48 hours): > 50 µg/mL; IC90 (Septoria tritici (St); 48 hours): > 50 µg/mL; IC90 (Diplodia maydis (Dm)): 2 µg/mL; IC90 (Rhizoctonia solani (Rs)): 0.08 µg/mL; IC90 ([5]; Table 4b, 48 hours): 0.08 µg/mL"
"COc1ccc(F)cc1[C@H](Cn1c(=O)n(C(C)(C)C(=O)NC(C)C)c(=O)c2c(C)c(-n3cccn3)sc21)OCCC#N [Compound I-78, (R)-2-(1-(2-(2-cyanoethoxy)-2-(5-fluoro-2-methoxyphenyl)ethyl)-5-methyl-2,4-dioxo-6-(1H-pyrazol-1-yl)-1,4-dihydrothieno[2,3-d]pyrimidin-3(2H)-yl)-N-isopropyl-2-methylpropanamide]",0.6 to 3 nM,10 to 40 nM,–,–,–,"IC90 ([2]; read-out: Concentration at 90% Inhibition Fv, Table 4b, 48 hours): > 50 µg/mL; IC90 (Botrtyis cinerea (Bc)): 10 µg/mL; IC90 [3]: > 50 µg/mL; IC90 ([4]; 48 h): > 50 µg/mL; IC90 (Septoria tritici (St); 48 h): > 50 µg/mL; IC90 (Diplodia maydis (Dm)): > 50 µg/mL; IC90 (Rhizoctonia solani (Rs)): 10 µg/mL; IC90 [5]: 10 µg/mL"
COc1ccccc1[C@H](Cn1c(=O)n(C(C)(C)C(=O)O)c(=O)c2c(C)c(-n3cccn3)sc21)OCCC#N [Compound I-79],0.6 to 3 nM,3 to 10 nM,–,–,–,"IC90 [2, 6]: 0.4 µg/mL; IC90 (Botrtyis cinerea (Bc)): 0.4 µg/mL; IC90 [3]: 0.4 µg/mL; IC90 ([4]; 48 hours): > 50 µg/mL; IC90 (Septoria tritici (St); 48 hours): 10 µg/mL; IC90 (Diplodia maydis (Dm)): 0.4 µg/mL; IC90 (Rhizoctonia solani (Rs)): 0.08 µg/mL; IC90 ([5]; Table 4b, 48 hours): 0.08 µg/mL"
